Experimental data published in US7576105B2, “Benzyl substituted (piperidin-4-yl)aminobenzamido derivatives” (priority 2002, dated 2009).
pKi: −log10 of the molar value.

Key:
δ-opioid receptor = biological target: T1, δ-opioid receptor (Rattus norvegicus, UniProt P33533); assay: Rat brain δ-opioid receptor binding assay; conditions: rat forebrain particulate preparation, [3H]DPDPE, 25° C.
T1 construct: from tissue; host or cells: rat forebrain homogenate (Wistar rat)

μ-opioid receptor = biological target: T2, μ-opioid receptor (Rattus norvegicus, UniProt P33535); assay: Rat brain μ-opioid receptor binding assay; conditions: rat forebrain particulate preparation, [3H]DAMGO, 25° C.
T2 construct: from tissue; host or cells: rat forebrain homogenate (Wistar rat)

[1] = tested on: acetylcholine bromide-induced abdominal constriction; conditions: mouse, in vivo

T2 sequence (P33535 whole entry): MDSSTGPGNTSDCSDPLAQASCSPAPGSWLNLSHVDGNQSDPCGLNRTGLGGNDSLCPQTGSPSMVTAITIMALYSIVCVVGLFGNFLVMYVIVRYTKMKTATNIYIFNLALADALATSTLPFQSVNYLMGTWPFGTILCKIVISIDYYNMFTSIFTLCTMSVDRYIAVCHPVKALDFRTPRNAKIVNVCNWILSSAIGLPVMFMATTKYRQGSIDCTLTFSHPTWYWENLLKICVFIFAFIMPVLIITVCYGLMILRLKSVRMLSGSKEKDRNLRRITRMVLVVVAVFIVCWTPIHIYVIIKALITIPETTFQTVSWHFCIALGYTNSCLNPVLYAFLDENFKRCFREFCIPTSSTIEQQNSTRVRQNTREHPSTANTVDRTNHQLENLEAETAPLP
T1 sequence (P33533 whole entry): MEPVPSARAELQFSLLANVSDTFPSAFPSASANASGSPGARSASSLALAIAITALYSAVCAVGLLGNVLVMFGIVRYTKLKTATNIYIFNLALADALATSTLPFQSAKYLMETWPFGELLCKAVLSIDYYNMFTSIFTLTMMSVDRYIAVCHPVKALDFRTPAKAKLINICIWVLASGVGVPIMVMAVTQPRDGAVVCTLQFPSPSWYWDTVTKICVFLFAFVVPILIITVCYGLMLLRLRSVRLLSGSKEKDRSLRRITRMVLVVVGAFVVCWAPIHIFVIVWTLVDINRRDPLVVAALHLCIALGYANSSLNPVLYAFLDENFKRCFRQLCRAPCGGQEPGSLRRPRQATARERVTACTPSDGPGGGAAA

Row | Structure (SMILES) | pKi (δ-opioid receptor) | pKi (μ-opioid receptor) | MAIT % Inhibition @150 μmol/kg [1]
1 | CCCN1CCC(N(Cc2cccc(OC)c2)c2ccc(C(=O)N(CC)CC)cc2)CC1 [Compound 1, N,N-diethyl-4-[3-methoxybenzyl(1-propylpiperidin-4-yl)amino]benzamide] | 6.62 | 5.03 | 
2 | CCCN1CCC(N(Cc2cccc(O)c2)c2ccc(C(=O)N(CC)CC)cc2)CC1 [Compound 2, N,N-Diethyl-4-[3-hydroxybenzyl(1-propylpiperidin-4-yl)amino]benzamide] |  |  | 13.3%
3 | CCCN1CCC(N(Cc2ccccc2O)c2ccc(C(=O)N(CC)CC)cc2)CC1 [Compound 5, N,N-Diethyl-4-[2-hydroxybenzyl(1-propylpiperidin-4-yl)amino]benzamide] | 5.46 | ≤ 5.00 | 
4 | CCCN1CCC(N(Cc2ccccc2)c2ccc(C(=O)N(CC)CC)cc2)CC1 [Compound 7, N,N-Diethyl-4-[benzyl(1-propylpiperidin-4-yl)amino]benzamide] |  |  | 100%
5 | CCN(CC)C(=O)c1ccc(N(Cc2ccccc2)C2CCNCC2)cc1 [Compound 8, N,N-Diethyl-4-[benzyl(piperidin-4-yl)amino]benzamide] |  |  | 33.3%
6 | C=CCN1CCC(N(Cc2ccccc2)c2ccc(C(=O)N(CC)CC)cc2)CC1 [Compound 9, N,N-Diethyl-4-[benzyl(1-allylpiperidin-4-yl)amino]benzamide] |  |  | 84.6%
7 | CCN(CC)C(=O)c1ccc(N(Cc2ccccc2)C2CCN(C(C)C)CC2)cc1 [Compound 10, N,N-Diethyl-4-[benzyl(1-isopropylpiperidin-4-yl)amino]benzamide] | 6.23 | 5.42 | 
8 | CCN(CC)C(=O)c1ccc(N(Cc2ccccc2)C2CCN(CCCN(C)C)CC2)cc1 [Compound 11, N,N-Diethyl-4-[benzyl(1-[3-dimethylaminopropyl]piperidin-4-yl)amino]benzamide] | 5.75 | ≤ 5.00 | 
